These results are taken from patent US20160185797A1, “ALKYNYL ALCOHOLS AND METHODS OF USE” (Genentech, Inc., priority 2013, published 2016).

The target in this assay is T1, nuclear factor-kappa B (NF-kB)-inducing kinase (NIK) (Homo sapiens, UniProt Q99558).
T1 construct: made in house; host or cells: baculovirus-infected insect cells
The assay is described as follows: NIK enzyme inhibition assay (Transcreener ADP fluorescence polarization, NIK ADP-FP). The assay is classed as biochemical. A general note: In fluorescence polarisation assays a small probe gives low polarisation when free and higher when bound to something large.

T1 sequence (Q99558 whole entry): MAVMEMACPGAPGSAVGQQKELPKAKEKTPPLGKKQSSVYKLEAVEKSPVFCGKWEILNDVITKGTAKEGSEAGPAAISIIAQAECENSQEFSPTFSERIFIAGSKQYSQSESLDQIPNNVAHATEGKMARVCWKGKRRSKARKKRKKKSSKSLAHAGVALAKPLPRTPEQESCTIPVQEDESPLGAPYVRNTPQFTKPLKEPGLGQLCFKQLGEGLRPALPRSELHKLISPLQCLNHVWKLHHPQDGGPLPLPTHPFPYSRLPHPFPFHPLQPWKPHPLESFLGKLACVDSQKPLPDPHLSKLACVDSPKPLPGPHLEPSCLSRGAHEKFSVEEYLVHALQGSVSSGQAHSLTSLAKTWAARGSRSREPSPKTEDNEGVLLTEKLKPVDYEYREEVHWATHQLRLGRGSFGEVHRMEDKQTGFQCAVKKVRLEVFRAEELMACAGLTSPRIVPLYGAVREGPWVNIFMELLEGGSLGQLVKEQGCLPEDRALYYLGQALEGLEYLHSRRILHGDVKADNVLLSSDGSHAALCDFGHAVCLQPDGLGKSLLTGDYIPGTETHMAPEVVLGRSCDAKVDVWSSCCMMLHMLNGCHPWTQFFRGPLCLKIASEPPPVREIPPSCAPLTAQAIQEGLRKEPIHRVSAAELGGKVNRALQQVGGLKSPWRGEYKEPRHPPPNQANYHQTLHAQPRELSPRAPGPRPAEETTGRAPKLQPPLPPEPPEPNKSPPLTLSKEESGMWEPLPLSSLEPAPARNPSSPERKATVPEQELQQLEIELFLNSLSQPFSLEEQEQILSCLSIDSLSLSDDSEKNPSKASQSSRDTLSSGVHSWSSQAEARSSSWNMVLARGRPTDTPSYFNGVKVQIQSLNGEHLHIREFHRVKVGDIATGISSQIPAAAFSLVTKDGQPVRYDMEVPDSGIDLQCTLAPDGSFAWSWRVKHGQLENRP
Protocol: NIK Enzyme Inhibition Assay:
The ability of the nuclear factor-kappa B (NF-kB)-inducing kinase (NIK) to catalyze the hydrolysis of adenosine-5′-triphosphate (ATP) was monitored using the Transcreener ADP (adenosine-5′-diphosphate) assay (BellBrook Labs). […] Reactions were quenched by the addition of 20 mM 2,2′,2″,2′″-(ethane-1,2-diyldinitrilo)tetraacetic acid and 0.01% Brij 35. The tracer bound to the antibody was displaced by the ADP generated during the NIK reaction, which causes a decrease in fluorescence polarization that was measured by laser excitation at 633 nm with a Fluorescence Correlation Spectroscopy Plus reader (Evotec AG). Equilibrium dissociation constant (Ki) values for NIK inhibitors are calculated from plots of activity vs. inhibitor concentration using Morrison's quadratic equation that accounts for the potential of tight binding, and by also applying the conversion factor that accounted for competitive inhibition and the concentration of substrate used in the assay relative to its Michaelis constant (Km).

As to `CN1CC[C@@](O)(C#Cc2cccc(-c3nc(N[C@H]4CCOC4)cc(C(N)=O)n3)c2)C1=O` (single isomer, unassigned) [Example 30], the affinity, expressed as Ki, was 23.2 nM.
Consider `NC(=O)c1nc(-c2cccc(C#C[C@]3(O)CCOC3=O)c2)ccc1N` (single isomer, unassigned) [Example 64], for which the Ki (as a rule, the equilibrium dissociation constant of an inhibitor or competing ligand from its target) worked out at 4.07 nM.
The compound `NC(=O)c1nc(-c2cccc(C#C[C@@]3(O)CCOC3=O)c2)ccc1N` (single isomer, unassigned) [Example 65] returned a Ki of 38 nM.
With `CN1CCC(O)(C#Cc2cccc(-c3nc(C(N)=O)ncc3NCC(F)(F)F)c2)C1=O` (stereo in doubt) [Example 147, 4-[3-[2-[(3R)-3-hydroxy-1-methyl-2-oxo-pyrrolidin-3-yl]ethynyl]phenyl]-5-(2,2,2-trifluoroethylamino) pyrimidine-2-carboxamide], affinity was put at a Ki of 879 nM.
`CC(=O)N1CCN(c2cc(C(N)=O)nc(-c3cccc(C#C[C@]4(O)CCN(C)C4=O)c3)n2)CC1` [Example 7, 6-(4-acetylpiperazin-1-yl)-2-[3-[2-[(3R)-3-hydroxy-1-methyl-2-oxo-pyrrolidin-3-yl]ethynyl]phenyl]pyrimidine-4-carboxamide] came in with a Ki of 1.25 nM.
The compound `CN1CC[C@@](O)(C#Cc2cccc(-c3nc(C(N)=O)cc(N4CC[C@@H](O)C4)n3)c2)C1=O` [Example 24, 2-[3-[2-[(3R)-3-hydroxy-1-methyl-2-oxo-pyrrolidin-3-yl]ethynyl]phenyl]-6-[(3R)-3-hydroxypyrrolidin-1-yl] pyrimidine-4-carboxamide] displayed a Ki of 1.05 nM.
For the compound `CC(C)C[C@H]1CCCN1c1cc(C(N)=O)nc(-c2cccc(C#C[C@]3(O)CCN(C)C3=O)c2)n1` [Example 25, 2-[3-[2-[(3R)-3-hydroxy-1-methyl-2-oxo-pyrrolidin-3-yl]ethynyl]phenyl]-6-[(2R)-2-isobutylpyrrolidin-1-yl] pyrimidine-4-carboxamide], the affinity corresponds to a Ki of 5.57 nM.
Then `Cc1cnc([C@@](C)(O)C#Cc2cccc(-c3nc(C(N)=O)c4ccn(C)c4n3)c2)o1` [Example 54, 2-[3-[(3S)-3-hydroxy-3-(5-methyloxazol-2-yl)but-1-ynyl]phenyl]-7-methyl-pyrrolo[2,3-d] pyrimidine-4-carboxamide], with 510 nM; and `CN1CC[C@@](O)(C#Cc2cccc(-c3nc(C(N)=O)cc4nccn34)c2)C1=O` [Example 61, 5-[3-[2-[(3R)-3-hydroxy-1-methyl-2-oxo-pyrrolidin-3-yl]ethynyl]phenyl]imidazo [1,2-c]pyrimidine-7-carboxamide], with 4.33 nM; and `CN1CC[C@@](O)(C#Cc2cccc(-c3nccc(C(N)=O)n3)c2F)C1=O` [Example 91, 2-[2-fluoro-3-[2-[(3R)-3-hydroxy-1-methyl-2-oxo-pyrrolidin-3-yl]ethynyl]phenyl]pyrimidine-4-carboxamide], with 14.4 nM.
As for `CN1CC[C@@](O)(C#Cc2cccc(-c3ncc(N4CCOCC4)c(C(N)=O)n3)c2)C1=O` [Example 103, 2-[3-[2-[(3R)-3-hydroxy-1-methyl-2-oxo-pyrrolidin-3-yl]ethynyl]phenyl]-5-morpholino-pyrimidine-4-carboxamide], the figure is 22.8 nM.
Then `CC(C)n1ncc2c(-c3cccc(C#C[C@]4(O)CCN(C)C4=O)c3)nc(C(N)=O)cc21` [Example 115, 4-[3-[2-[(3R)-3-hydroxy-1-methyl-2-oxo-pyrrolidin-3-yl]ethynyl]phenyl]-1-isopropyl-pyrazolo[4,3-c]pyridine-6-carboxamide], with 1.77 nM; and `Cc1nnc([C@](C)(O)C#Cc2cccc(-c3nccc(C(N)=O)n3)c2)o1` [Example 138, 2-[3-[(3R)-3-hydroxy-3-(5-methyl-1,3,4-oxadiazol-2-yl)but-1-ynyl]phenyl]pyrimidine-4-carboxamide], with 60.2 nM; and `Cc1ccc(C(N)=O)nc1-c1cccc(C#C[C@]2(O)CCN(C)C2=O)c1` [Example 140, 6-[3-[2-[(3R)-3-hydroxy-1-methyl-2-oxo-pyrrolidin-3-yl]ethynyl]phenyl]-5-methyl-pyridine-2-carboxamide], with 23.8 nM.
As to `CN1CC[C@@](O)(C#Cc2cc(-c3nccc(C(N)=O)n3)c3cn[nH]c3c2)C1=O` [Example 156, 2-[6-[2-[(3R)-3-hydroxy-1-methyl-2-oxo-pyrrolidin-3-yl]ethynyl]-1H-indazol-4-yl] pyrimidine-4-carboxamide], the affinity, expressed as Ki, was 11.3 nM.
In turn, `CN1CC[C@@](O)(C#Cc2cccc(-c3ccc(F)c(C(N)=O)n3)c2)C1=O` [Example 157, 3-fluoro-6-[3-[2-[(3R)-3-hydroxy-l-methyl-2-oxo-pyrrolidin-3-yl]ethynyl]phenyl] pyridine-2-carboxamide] returned a Ki of 1.86 nM.
As for `CN1CC[C@@](O)(C#Cc2cccc(-c3cc(NC4COC4)cc(C(N)=O)n3)c2)C1=O` [Example 163, 6-[3-[2-[(3R)-3-hydroxy-1-methyl-2-oxo-pyrrolidin-3-yl]ethynyl]phenyl]-4-(oxetan-3-ylamino)pyridine-2-carboxamide], the Ki amounted to 0.21 nM.
Compound `CC(=O)Nc1cc(C(N)=O)nc(-c2cccc(C#C[C@]3(O)CCN(C)C3=O)c2)c1` [Example 175, 4-acetamido-6-[3-[2-[(3R)-3-hydroxy-1-methyl-2-oxo-pyrrolidin-3-yl]ethynyl]phenyl] pyridine-2-carboxamide] yielded an inhibition constant Ki of 0.08 nM.
As for `CN1CC[C@@](O)(C#Cc2cccc(-c3cc(O)cc(C(N)=O)n3)c2)C1=O` [Example 176, 4-hydroxy-6-[3-[2-[(3R)-3-hydroxy-1-methyl-2-oxo-pyrrolidin-3-yl]ethynyl]phenyl] pyridine-2-carboxamide], the affinity corresponds to a Ki of 0.96 nM.
The compound `CN1CC[C@@](O)(C#Cc2cc(-c3nc(C(N)=O)cc4c3cnn4C)ccc2F)C1=O` [Example 177, 4-[4-fluoro-3-[2-[(3R)-3-hydroxy-l-methyl-2-oxo-pyrrolidin-3-yl]ethynyl]phenyl]-1-methyl-pyrazolo [4,3-c]pyridine-6-carboxamide] had a Ki of less than 0.05 nM.
Turning to `Cc1c(O)cc(-c2cccc(C#C[C@]3(O)CCN(C)C3=O)c2)nc1C(N)=O` [Example 178, 4-hydroxy-6-[3-[2-[(3R)-3-hydroxy-1-methyl-2-oxo-pyrrolidin-3-yl]ethynyl]phenyl]-3-methyl-pyridine-2-carboxamide], affinity was put at a Ki of 2.87 nM.
In turn, `COc1cc(C(N)=O)nc(-c2cc(C#C[C@]3(O)CCN(C)C3=O)ccc2F)c1` [Example 179, 6-[2-fluoro-5-[2-[(3R)-3-hydroxy-l-methyl-2-oxo-pyrrolidin-3-yl]ethynyl]phenyl]-4-methoxy-pyridine-2-carboxamide] yielded a Ki of less than 0.05 nM.
`COc1cc(C(N)=O)nc(-c2ccc(F)c(C#C[C@]3(O)CCN(C)C3=O)c2)c1` [Example 180, 6-[4-fluoro-3-[2-[(3R)-3-hydroxy-1-methyl-2-oxo-pyrrolidin-3-yl]ethynyl]phenyl]-4-methoxy-pyridine-2-carboxamide]: the inhibitory constant (Ki) was less than 0.05 nM.
As for `COc1cc(-c2cccc(C#C[C@]3(O)CCN(C)C3=O)c2)nc(C(N)=O)c1OC` [Example 181, 6-[3-[2-[(3R)-3-hydroxy-l-methyl-2-oxo-pyrrolidin-3-yl]ethynyl]phenyl]-3,4-dimethoxy-pyridine-2-carboxamide], the Ki was found to be 3.67 nM.
